{"source": "patent US20240009174A1", "about": "“METHODS FOR DISRUPTING MITOCHONDRIAL UNFOLDED PROTEIN RESPONSE” (Health Research, Inc., priority 2020, published 2024)", "key": {"TKO prostate tumors": {"tested_on": "TKO prostate tumors", "assay": "Spontaneous prostate tumor in PTEN:Rb:p53 knockout (TKO) animals", "type": "in vivo, mice", "experimental": "(§1) FIG. 8. Pharmacological inhibition of HSP60-ClpP inhibit oncogenic signaling and PCa tumor growth in vivo. (A) LNCaP, PC-3 and 22RV1 cells were treated with DCEM1 and analyzed for c-Myc and EZH2 protein expression after 24 hours of treatment. (B) LNCaP, 22RV1 and VCaP cells were treated with DCEM1 and analyzed for AR and PSA protein expression after 24 hours of treatment. (C-D) 22RV1 cells (1×10^6 cells) were mixed with matrigel (50:50 v/v) and injected into each flank of SCID mice and treated with DCEM1 (60 mg/kg bw) through IP route twice weekly and tumors were harvested, photographed (C) and weighed (D) at 30 days. (E) DEVDase activity were analyzed in 22RV1 xenograft tumor tissue following DCEM1 treatment and represented as fold change compared to control. (F) 22RV1 xenograft tissue were sectioned and expression of ki67, c-Myc and EZH2 proteins were analyzed by Immunohistochemistry as described in material and methods. (G-H) PC-3 cells (1×10^6 cells) were mixed with matrigel (50:50 v/v) and injected into each flank of SCID mice and treated with DCEM1 (60 mg/kg bw) through IP route twice weekly and tumors were harvested, photographed (G) and weighed (H) at 35 days. (I) DEVDase activity were analyzed in PC-3 xenograft tumor tissue following DCEM1 treatment and represented as fold change compared to control. (J) PC-3 xenograft tumor tissue were fixed and sections were used for in situ PLA to analyze HSP60-ClpP interaction in these tissue samples. (K) PBCre4:PTEN F/F: Rb F/F: p53 F/F (TKO) animals were treated with either vehicle (Normal saline: DMSO: Kolliphor HS15; 70:5:200 v/v) or DCEM1 (60 mg/kg bw in vehicle) twice weekly from 10 weeks of age. All animals were sacrificed at 16 weeks of age and whole genitourinary tract was harvested and weighed. (L) PBCre4:PTEN F/F: Rb F/F: p53 F/F (TKO) animals were treated with either vehicle (Normal saline:DMSO:Kolliphor HS15; 70:5:200 v/v) or DCEM1 (60 mg/kg bw in vehicle) twice weekly from 10 weeks of age. All animals were sacrificed at 16 weeks of age and imaged by MRI. (M) PBCre4:PTEN F/F: Rb F/F: p53 F/F (TKO) animals were treated with either vehicle (Normal saline:DMSO:Kolliphor HS15; 70:5:200 v/v) or DCEM1 (60 mg/kg bw in vehicle) twice weekly from 10 weeks of age. […] All animals were sacrificed at 16 weeks of age and prostate tissue and tumors were harvested, whole cell lysate were prepared and analyzed for HSP60 and ClpP expression (N); c-Myc and EZH2 expression (0) and SYP and CK 8/18 expression (P) by immunoblotting. […]\n(§2) Ablation of HSP60-ClpP interaction by DCEM1 downregulates c-Myc, EZH2 and AR as well as inhibits tumor growth in vivo. […] The effect of DCEM1 on 22RV1 (AR positive) and PC-3 (AR negative) xenografts growth in SCID mice was analyzed. […]"}, "[1]": {"tested_on": "PC-3 (AR negative) xenografts", "assay": "PC-3 xenograft in SCID mice", "type": "in vivo", "conditions": "60 mg/kg bw", "experimental": "as §1, with “samples.” for “samples. (K) PBCre4:PTEN F/F: Rb F/F: p53 F/F (TKO) animals were treated with either vehicle (Normal saline: DMSO: Kolliphor HS15; 70:5:200 v/v) or DCEM1 (60 mg/kg bw in vehicle) twice weekly from 10 weeks of age. All animals were sacrificed at 16 weeks of age and whole genitourinary tract was harvested and weighed. (L) PBCre4:PTEN F/F: Rb F/F: p53 F/F (TKO) animals were treated with either vehicle (Normal saline:DMSO:Kolliphor HS15; 70:5:200 v/v) or DCEM1 (60 mg/kg bw in vehicle) twice weekly from 10 weeks of age. All animals were sacrificed at 16 weeks of age and imaged by MRI. (M) PBCre4:PTEN F/F: Rb F/F: p53 F/F (TKO) animals were treated with either vehicle (Normal saline:DMSO:Kolliphor HS15; 70:5:200 v/v) or DCEM1 (60 mg/kg bw in vehicle) twice weekly from 10 weeks of age.”\nas §2"}, "[2]": {"tested_on": "mitochondrial chaperonin activity in PCa cells", "assay": "Mitochondrial Chaperonin Activity Assay (MiCAA)", "type": "cell-based", "conditions": "24 h", "experimental": "FIG. 10. Mitochondrial Chaperonin Activity Assay (MiCAA). PCa cells were treated with either DCEM1 (A) or ETB or Mizoribine (B) for 24 h and mitochondrial (Mito) chaperonin activity was analyzed as described in material and methods. In another experiment, PCa cells were transfected with siRNA to target HSP60 mRNA and mitochondrial chaperonin activity was analyzed (C). In (A), the bars in each series from left to right are DMSO and DCEM1. In (B), the bars in each series from left to right are DMSO, ETB, and MZR. In (C), the bars in each series from left to right are siMock, siHSP60-1, and siHSP60-2.\nSince HSP60 chaperonin system is crucial for maintaining mitochondrial homeostasis in normal cells, a novel method, Mitochondrial Chaperonin Activity Assay (MiCAA), was developed to analyze chaperonin activity in live cells using flow cytometry to evaluate whether DCEM1 modulates mitochondrial chaperonin activity."}, "[3]": {"conditions": "60 mg/kg bw twice weekly, 10 to 16 weeks of age, immunoblotting"}}}
{"smiles": "CCOc1cc(CNCc2nc3ccccc3[nH]2)ccc1OCc1cccs1", "note": "[DCEM1]", "values": [{"measurement": "prostate tumor growth in TKO mice (GU weight, tumor volume by MRI)", "setting": "TKO prostate tumors; 60 mg/kg bw twice weekly from 10 weeks to 16 weeks of age", "value": "significantly inhibited prostate tumor growth"}, {"measurement": "HSP60 and ClpP expression in TKO prostatic tissue", "setting": "TKO prostate tumors; [3]", "value": "downregulated HSP60 and ClpP expression"}, {"measurement": "SYP and CK 8/18 expression in TKO tumor tissues", "setting": "TKO prostate tumors; [3]", "value": "downregulated SYP and up regulated CK 8/18 expression"}, {"measurement": "c-Myc and EZH2 in TKO prostatic tissue", "setting": "TKO prostate tumors; [3]", "value": "depletion of c-Myc and EZH2"}, {"measurement": "HSP60-ClpP interaction by in situ PLA in PC-3 xenograft tumors", "setting": "[1]", "value": "inhibited HSP60-ClpP interaction"}, {"measurement": "caspase-3 (DEVDase) activity in PC-3 xenograft tumors", "setting": "[1]; IP, twice weekly", "value": "induced"}, {"measurement": "tumor volume and weight, PC-3 xenografts", "setting": "[1]; IP, twice weekly, 35 days", "value": "effectively inhibited"}, {"measurement": "mitochondrial chaperonin activity", "setting": "[2]", "value": "did not modulate"}]}
